Values after ≈ are worked out from the molar mass of the structure shown. Like-named read-outs stand apart in the source and are kept apart here.
Experiments:
[1] = test system: murine macrophage cell line RAW264.7; experiment: Eukaryotic cell toxicity assay, RAW264.7; type: cell-based; conditions: Mus musculus, read-out: GIC50 RAW264.7
R. equi RHA1 = experiment: SPOTi assay, R. equi RHA1; type: cell-based, Rhodococcus equi; conditions: Rhodococcus (subgen. Prescottella) equi, RHA1, LB, 30°C 48 h
E. coli K12 = experiment: SPOTi assay, E. coli; type: cell-based, Escherichia coli; conditions: Escherichia coli, K12, LB, 37°C overnight
M. bovis BCG Pasteur = experiment: microbe, parasite or virus in culture; type: cell-based; conditions: for MIC: Mycobacterium tuberculosis variant bovis BCG, BCG
M. tuberculosis H37Rv = experiment: SPOTi growth inhibition assay, M. tuberculosis H37Rv; type: cell-based; conditions: for MIC: Mycobacterium tuberculosis, H37RV
M. smegmatis mc^2155 = experiment: SPOTi assay, M. smegmatis; type: cell-based, Mycobacterium smegmatis; conditions: Mycolicibacterium smegmatis, MC^2155
P. putida = experiment: SPOTi assay, P. putida; type: cell-based, Pseudomonas putida; conditions: Pseudomonas putida, LB, 37°C overnight
M. aurum = experiment: SPOTi assay, M. aurum; type: cell-based, Mycobacterium aurum; conditions: Mycolicibacterium aurum
[2] = target: MurE (Rv2158c) protein of M. tuberculosis H37Rv (Mycobacterium tuberculosis, UniProt P9WJL3); experiment: Mtb-MurE HPLC inhibition assay; type: biochemical; conditions: HPLC assay, 37°C 30 min
CYP 2D6 = target: T1, CYP 2D6 (Homo sapiens, UniProt P10635); experiment: CYP450 inhibition assay, CYP 2D6; type: in vitro ADME; set-up: dose or concentration left out as unconfirmed; conditions: CYP baculosomes with recombinant human CYP2D6, probe fluorogenic substrate (not named); human recombinant enzymes; read-out: Mean % inhibtion CYP 2D6
T1 construct: purchased; host or cells: baculosomes (insect-cell microsomes; own knowledge)
Protocol: (§1) The compounds originally dissolved in DMSO were added to PBS to give a resulting concentration of […]. CYP baculosomes containing cDNA for a single human P450 isozyme, the fluorogenic substrate and the NADPH were added to the test solution. The reaction was incubated at 37°C for at least 1 h. Fluorogenic substrates metabolized by CYP enzymes result in highly fluorescent products in aqueous solution. The inhibition of CYP prevents this metabolism, which corresponds to a decrease in the fluorescence signal. The fluorescence was measured on a plate reader.

CYP 2C19 = target: T2, CYP 2C19 (Homo sapiens, UniProt P33261); experiment: CYP450 inhibition assay, CYP 2C19; type: in vitro ADME; set-up: dose or concentration left out as unconfirmed; conditions: CYP baculosomes with recombinant human CYP2C19, probe fluorogenic substrate (not named); human recombinant enzymes; read-out: Mean % inhibtion CYP 2C19
T2 construct: purchased; host or cells: baculosomes (insect-cell microsomes; own knowledge)
Protocol: as §1

CYP 3A4 = target: T3, CYP 3A4 (Homo sapiens, UniProt P08684); experiment: CYP450 inhibition assay, CYP 3A4; type: in vitro ADME; set-up: dose or concentration left out as unconfirmed; conditions: CYP baculosomes with recombinant human CYP3A4, probe fluorogenic substrate (not named); human recombinant enzymes; read-out: Mean % inhibtion CYP 3A4
T3 construct: purchased; host or cells: baculosomes (insect-cell microsomes; own knowledge)
Protocol: as §1

CYP 1A2 = target: T4, CYP 1A2 (Homo sapiens, UniProt P05177); experiment: CYP450 inhibition assay, CYP 1A2; type: in vitro ADME; set-up: dose or concentration left out as unconfirmed; conditions: CYP baculosomes with recombinant human CYP1A2, probe fluorogenic substrate (not named); human recombinant enzymes; read-out: Mean % inhibtion CYP 1A2
T4 construct: purchased; host or cells: baculosomes (insect-cell microsomes; own knowledge)
T4 sequence (P05177 1-516): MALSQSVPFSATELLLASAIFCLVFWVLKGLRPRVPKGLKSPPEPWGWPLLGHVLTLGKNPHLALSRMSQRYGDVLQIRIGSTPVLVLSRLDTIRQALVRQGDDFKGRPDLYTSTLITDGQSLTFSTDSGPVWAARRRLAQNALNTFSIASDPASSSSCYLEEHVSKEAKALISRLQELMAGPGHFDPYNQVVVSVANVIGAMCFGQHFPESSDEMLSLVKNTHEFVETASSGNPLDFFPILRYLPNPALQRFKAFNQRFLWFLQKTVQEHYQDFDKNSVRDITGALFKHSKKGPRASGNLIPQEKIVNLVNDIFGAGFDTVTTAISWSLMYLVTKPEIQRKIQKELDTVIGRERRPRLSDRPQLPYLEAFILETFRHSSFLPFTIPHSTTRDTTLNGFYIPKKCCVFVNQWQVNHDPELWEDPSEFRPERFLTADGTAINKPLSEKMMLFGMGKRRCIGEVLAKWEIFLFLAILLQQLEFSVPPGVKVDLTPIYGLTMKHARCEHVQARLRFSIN
Protocol: as §1

CYP 2C9 = target: T5, CYP 2C9 (Homo sapiens, UniProt P11712); experiment: CYP450 inhibition assay, CYP 2C9; type: in vitro ADME; set-up: dose or concentration left out as unconfirmed; conditions: CYP baculosomes with recombinant human CYP2C9, probe fluorogenic substrate (not named); human recombinant enzymes; read-out: Mean % inhibtion CYP 2C9
T5 construct: purchased; host or cells: baculosomes (insect-cell microsomes; own knowledge)
Protocol: as §1

M. bovis BCG = type: cell-based; conditions: M. bovis BCG treated at 4 × MIC for 48 h (D-cycloserine 100 mg/L, 39 160 mg/L); 100 cells
[3] = RAW264.7, value in square brackets
[4] = murine macrophage cell line RAW264.7
[5] = 336 h, read-out: MIC M. bovis BCG, SPOTi, 2 weeks at 37°C
[6] = read-out: MIC M. bovis BCG, SPOTi, value in square brackets
[7] = 336 h, SPOTi, 2 weeks at 37°C, read-out: MIC M. tuberculosis H37Rv
[8] = SPOTi, value in square brackets, read-out: MIC M. tuberculosis H37Rv

T1 sequence (P10635 whole entry): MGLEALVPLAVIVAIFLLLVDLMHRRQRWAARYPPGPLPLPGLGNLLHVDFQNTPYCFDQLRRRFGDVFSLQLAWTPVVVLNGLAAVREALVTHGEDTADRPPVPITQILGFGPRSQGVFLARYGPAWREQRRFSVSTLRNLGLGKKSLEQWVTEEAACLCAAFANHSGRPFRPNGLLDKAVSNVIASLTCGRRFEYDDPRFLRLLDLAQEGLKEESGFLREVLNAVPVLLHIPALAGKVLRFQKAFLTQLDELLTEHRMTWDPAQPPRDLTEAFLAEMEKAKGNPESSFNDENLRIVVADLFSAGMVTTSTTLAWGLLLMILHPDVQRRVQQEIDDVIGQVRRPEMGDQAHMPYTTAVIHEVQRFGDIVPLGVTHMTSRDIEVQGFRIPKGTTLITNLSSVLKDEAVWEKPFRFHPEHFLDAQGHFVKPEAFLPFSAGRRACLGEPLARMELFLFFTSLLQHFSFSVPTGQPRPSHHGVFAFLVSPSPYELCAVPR
Sequence of MurE (Rv2158c) protein of M. tuberculosis H37Rv (P9WJL3 whole entry, looked up): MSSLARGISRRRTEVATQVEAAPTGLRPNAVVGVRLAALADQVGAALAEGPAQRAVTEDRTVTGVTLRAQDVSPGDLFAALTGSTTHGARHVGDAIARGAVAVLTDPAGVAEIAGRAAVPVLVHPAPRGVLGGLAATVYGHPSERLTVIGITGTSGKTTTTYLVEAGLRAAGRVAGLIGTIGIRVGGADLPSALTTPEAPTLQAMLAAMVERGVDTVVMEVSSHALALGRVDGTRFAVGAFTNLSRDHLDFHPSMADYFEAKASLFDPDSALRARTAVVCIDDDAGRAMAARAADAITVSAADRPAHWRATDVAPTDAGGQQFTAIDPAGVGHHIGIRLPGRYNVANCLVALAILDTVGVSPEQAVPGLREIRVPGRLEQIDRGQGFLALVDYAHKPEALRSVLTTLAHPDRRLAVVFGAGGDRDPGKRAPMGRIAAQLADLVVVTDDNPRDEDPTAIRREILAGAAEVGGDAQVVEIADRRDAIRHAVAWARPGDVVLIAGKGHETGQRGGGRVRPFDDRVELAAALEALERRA
T3 sequence (P08684 whole entry): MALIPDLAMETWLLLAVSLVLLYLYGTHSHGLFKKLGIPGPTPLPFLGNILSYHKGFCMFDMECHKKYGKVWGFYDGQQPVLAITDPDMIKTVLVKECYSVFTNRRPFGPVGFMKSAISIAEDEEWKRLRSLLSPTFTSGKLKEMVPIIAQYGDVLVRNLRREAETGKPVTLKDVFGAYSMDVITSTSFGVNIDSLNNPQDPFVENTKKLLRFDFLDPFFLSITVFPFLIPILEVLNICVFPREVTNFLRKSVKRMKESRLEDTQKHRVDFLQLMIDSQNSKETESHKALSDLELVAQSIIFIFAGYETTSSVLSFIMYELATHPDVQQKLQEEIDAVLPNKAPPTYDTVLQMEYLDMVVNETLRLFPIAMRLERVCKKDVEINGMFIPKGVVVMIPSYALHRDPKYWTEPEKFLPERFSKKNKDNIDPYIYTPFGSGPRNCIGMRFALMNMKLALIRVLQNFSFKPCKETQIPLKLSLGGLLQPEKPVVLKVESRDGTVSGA
T2 sequence (P33261 whole entry): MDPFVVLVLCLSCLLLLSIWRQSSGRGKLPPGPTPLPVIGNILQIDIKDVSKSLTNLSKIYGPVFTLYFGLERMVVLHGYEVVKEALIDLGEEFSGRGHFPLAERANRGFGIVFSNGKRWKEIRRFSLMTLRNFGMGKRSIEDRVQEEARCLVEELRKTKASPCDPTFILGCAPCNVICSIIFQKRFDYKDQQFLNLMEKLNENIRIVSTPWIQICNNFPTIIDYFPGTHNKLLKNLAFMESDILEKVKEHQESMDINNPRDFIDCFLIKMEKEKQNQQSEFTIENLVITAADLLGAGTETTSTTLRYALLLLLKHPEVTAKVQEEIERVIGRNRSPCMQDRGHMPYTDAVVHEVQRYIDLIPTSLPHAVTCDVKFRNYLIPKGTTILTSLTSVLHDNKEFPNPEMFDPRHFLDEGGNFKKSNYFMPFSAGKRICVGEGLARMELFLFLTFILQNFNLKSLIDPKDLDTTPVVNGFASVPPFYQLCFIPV
T5 sequence (P11712 whole entry): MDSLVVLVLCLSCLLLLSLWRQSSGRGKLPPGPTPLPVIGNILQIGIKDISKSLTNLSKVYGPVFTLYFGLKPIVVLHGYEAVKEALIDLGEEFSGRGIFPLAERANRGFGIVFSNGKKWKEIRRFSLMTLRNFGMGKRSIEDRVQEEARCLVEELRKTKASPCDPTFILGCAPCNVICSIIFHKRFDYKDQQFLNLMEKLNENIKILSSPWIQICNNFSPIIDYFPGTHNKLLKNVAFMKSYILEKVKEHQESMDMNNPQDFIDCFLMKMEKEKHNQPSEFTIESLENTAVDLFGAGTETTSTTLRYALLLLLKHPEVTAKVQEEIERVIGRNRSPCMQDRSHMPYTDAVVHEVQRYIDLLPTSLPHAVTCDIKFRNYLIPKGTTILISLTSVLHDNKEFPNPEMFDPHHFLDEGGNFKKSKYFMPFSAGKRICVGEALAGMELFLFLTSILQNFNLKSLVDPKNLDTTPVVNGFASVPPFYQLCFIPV

COc1ccc(Cl)c2c1C(Cc1ccc3c(c1)OCO3)NCC2 (stereo not shown) [Compound 36]
IC50 [1, 3]: 124 µM | IC50 [1, 4]: 41 µg/mL | MIC (R. equi RHA1): > 100 µg/mL | MIC (E. coli K12): > 100 µg/mL | MIC (M. bovis BCG Pasteur; [5]): 40 µg/mL | MIC (M. bovis BCG Pasteur; [6]): 121 µM | MIC (M. tuberculosis H37Rv; [7]): 60 µg/mL | MIC (M. tuberculosis H37Rv; [8]): 181 µM | MIC (M. smegmatis mc^2155): 60 µg/mL (≈ 181 µM) | MIC (P. putida): > 100 µg/mL | MIC (M. aurum): 60 µg/mL (≈ 181 µM)

CCCCCCCCCC1NCCc2cc(O)c(O)cc21 (stereo not shown) [Compound 24]
IC50 [1, 3]: 5.5 µM | IC50 [1, 4]: 1.6 µg/mL | MIC (R. equi RHA1): > 100 µg/mL | MIC (E. coli K12): > 100 µg/mL | MIC (M. bovis BCG Pasteur; [5]): > 60 µg/mL | MIC (M. bovis BCG Pasteur; [6]): 275 µM | MIC M. bovis BCG (M. bovis BCG Pasteur; SPOTi, 2 weeks at 37°C): 80 µg/mL (≈ 275 µM) | MIC (M. tuberculosis H37Rv; 336 h, read-out: MIC M. tuberculosis H37Rv, SPOTi, 2 weeks at 37°C): 80 µg/mL | MIC (M. tuberculosis H37Rv; [8]): 206 µM | MIC M. tuberculosis H37Rv (M. tuberculosis H37Rv; SPOTi, 2 weeks at 37°C): 60 µg/mL (≈ 206 µM) | MIC (M. smegmatis mc^2155): 100 µg/mL (≈ 343 µM) | IC50 [2]: 186 µM | MIC (P. putida): > 100 µg/mL | MIC (M. aurum): 100 µg/mL (≈ 343 µM)

O=c1cc(-c2ccccc2)oc2c1ccc1ccccc12 [α-naphthoflavone, reference compound]
inhibition (CYP 2D6): 99.1% | inhibition (CYP 2C19): 100% | inhibition (CYP 3A4): 101% | inhibition (CYP 1A2): 100% | inhibition (CYP 2C9): 101%

COc1ccc(Cl)c2c1C(Cc1cc3c(cc1Br)OCO3)NCC2 (stereo not shown) [Compound 39]
IC50 [1, 3]: 178 µM | IC50 [1, 4]: 73 µg/mL | cell length (M. bovis BCG): 4.7 ± 1.4 μm | MIC (M. bovis BCG Pasteur; [5]): 40 µg/mL | MIC (M. bovis BCG Pasteur; [6]): 97 µM | MIC (M. tuberculosis H37Rv; [7]): 40 µg/mL | MIC (M. tuberculosis H37Rv; [8]): 97 µM
